The source of these data is patent publication US3974168A, “Tricycle substituted acetones” (Yoshitomi Pharmaceutical Industries, Ltd., priority 1973, dated 1976).

A word on the % inhibition: it is the share of the control response that was lost under treatment. Low values mean little suppression, high ones strong suppression.

One assay concerns Carrageenin Edema. Nature of the assay: Carrageenin Edema Method (anti-inflammatory action). The conditions noted are these: carrageenin paw edema, rats, 2 hours after phlogogen. It is filed as in vivo, Donryu-strain male rats. As for the experimental part:
i. Carrageenin Edema Method
According to the method of Winter et al. (Proc. Soc. Exptl. Biol. Med., 111, 544 (1962)), to one group of five Donryu-strain male rats each weighing about 130 g a test solution containing a test compound was administered orally. One hour later 0.05 ml of 1% carrageenin solution as a phlogogenic substance was subcutaneously injected to the paw of the hind leg. And 2 hours after the administration of phlogogen the bulk of the paw was measured in order to obtain the increment percentage over that before administration. The ratio of bulk increment between a control group and a test group was calculated as inhibition percentage.
(The carrageenan paw model is a standard test of acute inflammation.)

Assay [1] has as its system stretch symptoms induced by o-phenyl-p-benzoquinone. As to the kind of experiment: Phenylquinone Method (analgesic action). It counts as in vivo, dd-strain male mice. The conditions noted are these: mice, stretch symptoms over 30 minutes. As for the experimental part:
Analgesic Action (Phenylquinone Method)
According to the method of Hendershot et al. (J. Pharmacol. Exptl. Therap., 125, 237 (1957)), to one group of six dd-strain male mice each weighing about 20 g a test solution containing a test compound was orally administered and 1 hour later 0.2 ml/20 g of body weight of 0.02% o-phenyl-p-benzoquinone solution was intraperitoneally injected. The frequency of stretch symptoms thus induced was measured for 30 minutes, and compared with that of a control group, and the inhibition percentage (effect) was calculated. Results: Carrageenin Edema Method Compound Dose (mg/kg) p.o. % inhibition ______________________________________ A 5 50 25 68 B 10 36 25 61 C 25 32 50 63 ______________________________________

The test system of the next assay is Ultraviolet Erythema. As to the kind of experiment: Ultraviolet Erythema Method (anti-inflammatory action). The conditions noted are these: guinea pigs, 2 hours after irradiation, half dose 1 hour before and after. It is filed as in vivo. As for the experimental part:
ii. Ultraviolet Erythema Method
Using guinea pigs weighing 250-450 g, a rubber plate with 3 holes of 7 mm in diameter was fitted to the abdomen, hair of which had been removed in advance, and light was given by a mercury lamp (300 W) at the distance of 15 cm for 150 seconds. Two hours later the degree of erythema formation was marked according to the method of Winder et al. (Arch. Intern. Pharmacodyn., 116, 261 (1958)) and the efficacy rate was calculated, based on the criterion that 1.5 or less of total marks be effective. Half amount of the test solution was orally given 1 hour before and after the irradiation.

With `CC(=O)C(C)c1ccc2c(c1)Cc1cccnc1O2` (stereo not drawn) [A, 3-(5h-[1]benzopyrano[2,3-b]pyridin-7-yl)-2-butanone], the “% inhibition” value in the assay on Carrageenin Edema (5 mg/kg p.o.) is recorded as 50%; with Carrageenin Edema (25 mg/kg p.o.) it was 68%; in assay [1] (5 mg/kg p.o.), 48.7%; in assay [1] (10 mg/kg p.o.), 73.5%. Moreover, the “Animals with score of 1.5 or less / Total animals” value with Ultraviolet Erythema (1 mg/kg p.o.) is recorded as 3/10; with Ultraviolet Erythema (2.5 mg/kg p.o.), 6/10.
Consider `CC(=O)C(C)c1ccc2c(c1)Cc1ccc(C)nc1O2` (stereo not drawn) [B, 3-(2-methyl-5H-[1]benzopyrano[2,3-b]pyridin-7-yl)-2-butanone], for which the “% inhibition” value came to 36% in the assay on Carrageenin Edema (10 mg/kg p.o.), 61% in the assay with Carrageenin Edema (25 mg/kg p.o.), 24.0% in assay [1] (0.5 mg/kg p.o.) and 63.4% in assay [1] (1 mg/kg p.o.). Further, the “Animals with score of 1.5 or less / Total animals” value with Ultraviolet Erythema (100 mg/kg p.o.) is 2/5; with Ultraviolet Erythema (250 mg/kg p.o.) it was 4/5.
Turning to `CCC(=O)C(C)c1ccc2c(c1)Cc1cccnc1O2` (stereo not drawn) [C, 2-(5h-[1]benzopyrano[2,3-b]pyridin-7-yl)-3-pentanone], the “% inhibition” value came to 32% with Carrageenin Edema (25 mg/kg p.o.), 63% in the assay with Carrageenin Edema (50 mg/kg p.o.), 41.6% in assay [1] (25 mg/kg p.o.) and 75.2% in assay [1] (50 mg/kg p.o.). Further, the “Animals with score of 1.5 or less / Total animals” value in the assay on Ultraviolet Erythema (1 mg/kg p.o.) was 2/5; with Ultraviolet Erythema (5 mg/kg p.o.), 3/5.
